± gives the expanded uncertainty stated by the source.
Key:
[1] = 298.15 K; 101.33 kPa; Liquid; Vibrating tube method
[2] = xn = mol fraction of the nth substance listed; conditions: 101 kPa, Liquid, Vibrating tube method

C[SiH]1O[SiH](C)O[SiH](C)O[SiH](C)O1 (stereo unspecified) [2,4,6,8-tetramethyl-1,3,5,7,2,4,6,8-tetroxatetrasilocane]
Conditions | mass density [kg/m3]
[1] | 992.39 ± 0.11

Cc1ccccc1 [toluene]
Conditions | mass density [kg/m3]
[1] | 862.23 ± 0.13

C[SiH]1O[SiH](C)O[SiH](C)O[SiH](C)O1 (stereo unspecified) [2,4,6,8-tetramethyl-1,3,5,7,2,4,6,8-tetroxatetrasilocane] + Cc1ccccc1C
mass density [kg/m3], [2]
Conditions | 288.15 K | 298.15 K | 308.15 K
x1 = 0.0499 | 896.79 ± 0.13 | 888.17 ± 0.13 | 879.45 ± 0.13
x1 = 0.1 | 908.22 ± 0.13 | 899.3 ± 0.13 | 890.28 ± 0.13
x1 = 0.15 | 918.4 ± 0.12 | 909.22 ± 0.13 | 899.95 ± 0.13
x1 = 0.2 | 927.56 ± 0.12 | 918.11 ± 0.12 | 908.59 ± 0.12
x1 = 0.25 | 935.82 ± 0.12 | 926.11 ± 0.12 | 916.33 ± 0.12
x1 = 0.2998 | 943.2 ± 0.12 | 933.25 ± 0.12 | 923.21 ± 0.12
x1 = 0.3501 | 949.98 ± 0.12 | 939.8 ± 0.12 | 929.53 ± 0.12
x1 = 0.3998 | 956.06 ± 0.11 | 945.66 ± 0.12 | 935.16 ± 0.12
x1 = 0.4496 | 961.56 ± 0.11 | 950.95 ± 0.11 | 940.25 ± 0.12
x1 = 0.4998 | 966.65 ± 0.11 | 955.84 ± 0.11 | 944.92 ± 0.12
x1 = 0.5497 | 971.24 ± 0.11 | 960.22 ± 0.11 | 949.1 ± 0.11
x1 = 0.5997 | 975.45 ± 0.11 | 964.25 ± 0.11 | 952.96 ± 0.11
x1 = 0.6496 | 979.25 ± 0.11 | 967.88 ± 0.11 | 956.36 ± 0.11
x1 = 0.7001 | 982.82 ± 0.11 | 971.27 ± 0.11 | 959.58 ± 0.11
x1 = 0.7502 | 986.05 ± 0.11 | 974.32 ± 0.11 | 962.44 ± 0.11
x1 = 0.7998 | 988.96 ± 0.11 | 977.09 ± 0.11 | 965.04 ± 0.11
x1 = 0.848 | 991.61 ± 0.11 | 979.54 ± 0.11 | 967.33 ± 0.11
x1 = 0.9002 | 994.23 ± 0.11 | 982.02 ± 0.11 | 969.65 ± 0.11

Cc1cccc(C)c1 [1,3-dimethylbenzene]
Conditions | mass density [kg/m3]
[1] | 859.86 ± 0.13

C[SiH]1O[SiH](C)O[SiH](C)O[SiH](C)O1 (stereo unspecified) [2,4,6,8-tetramethyl-1,3,5,7,2,4,6,8-tetroxatetrasilocane] + Cc1ccc(C)cc1
mass density [kg/m3], [2]
Conditions | 288.15 K | 298.15 K | 308.15 K
x1 = 0.0499 | 879.33 ± 0.13 | 870.42 ± 0.14 | 861.48 ± 0.14
x1 = 0.0999 | 892.03 ± 0.13 | 882.82 ± 0.13 | 873.61 ± 0.13
x1 = 0.1501 | 903.51 ± 0.13 | 893.96 ± 0.13 | 884.48 ± 0.13
x1 = 0.1999 | 913.85 ± 0.12 | 904.11 ± 0.13 | 894.33 ± 0.13
x1 = 0.25 | 923.25 ± 0.12 | 913.34 ± 0.12 | 903.35 ± 0.13
x1 = 0.2999 | 931.83 ± 0.12 | 921.7 ± 0.12 | 911.4 ± 0.12
x1 = 0.3501 | 939.62 ± 0.12 | 929.23 ± 0.12 | 918.8 ± 0.12
x1 = 0.4 | 946.73 ± 0.12 | 936.18 ± 0.12 | 925.53 ± 0.12
x1 = 0.4502 | 953.29 ± 0.12 | 942.54 ± 0.12 | 931.67 ± 0.12
x1 = 0.4997 | 959.21 ± 0.11 | 948.26 ± 0.12 | 937.19 ± 0.12
x1 = 0.5493 | 964.63 ± 0.11 | 953.54 ± 0.11 | 942.24 ± 0.12
x1 = 0.6001 | 969.79 ± 0.11 | 958.45 ± 0.11 | 947.03 ± 0.12
x1 = 0.6501 | 974.4 ± 0.11 | 962.93 ± 0.11 | 951.37 ± 0.11
x1 = 0.7002 | 978.67 ± 0.11 | 967.02 ± 0.11 | 955.31 ± 0.11
x1 = 0.7472 | 982.39 ± 0.11 | 970.62 ± 0.11 | 958.76 ± 0.11
x1 = 0.7998 | 986.27 ± 0.11 | 974.32 ± 0.11 | 962.3 ± 0.11
x1 = 0.8492 | 989.69 ± 0.11 | 977.56 ± 0.11 | 965.38 ± 0.11
x1 = 0.9002 | 992.92 ± 0.11 | 980.61 ± 0.11 | 968.28 ± 0.11

c1ccccc1 [benzene]
Conditions | mass density [kg/m3]
[1] | 873.57 ± 0.13

C[SiH]1O[SiH](C)O[SiH](C)O[SiH](C)O1 (stereo unspecified) [2,4,6,8-tetramethyl-1,3,5,7,2,4,6,8-tetroxatetrasilocane] + Cc1cccc(C)c1
mass density [kg/m3], [2]
Conditions | 288.15 K | 298.15 K | 308.15 K
x1 = 0.05 | 882 ± 0.13 | 873.13 ± 0.14 | 864.29 ± 0.14
x1 = 0.1001 | 894.34 ± 0.13 | 885.16 ± 0.13 | 876.06 ± 0.13
x1 = 0.15 | 905.42 ± 0.13 | 896 ± 0.13 | 886.6 ± 0.13
x1 = 0.1999 | 915.45 ± 0.12 | 905.8 ± 0.13 | 896.12 ± 0.13
x1 = 0.2498 | 924.55 ± 0.12 | 914.65 ± 0.12 | 904.73 ± 0.12
x1 = 0.2999 | 932.94 ± 0.12 | 922.8 ± 0.12 | 912.66 ± 0.12
x1 = 0.35 | 940.55 ± 0.12 | 930.19 ± 0.12 | 919.83 ± 0.12
x1 = 0.3995 | 947.41 ± 0.12 | 936.84 ± 0.12 | 926.34 ± 0.12
x1 = 0.4504 | 953.92 ± 0.12 | 943.11 ± 0.12 | 932.41 ± 0.12
x1 = 0.5 | 959.71 ± 0.11 | 948.69 ± 0.12 | 937.79 ± 0.12
x1 = 0.55 | 965.11 ± 0.11 | 953.9 ± 0.11 | 942.81 ± 0.12
x1 = 0.5996 | 970.04 ± 0.11 | 958.65 ± 0.11 | 947.34 ± 0.12
x1 = 0.65 | 974.69 ± 0.11 | 963.1 ± 0.11 | 951.62 ± 0.11
x1 = 0.6995 | 978.87 ± 0.11 | 967.14 ± 0.11 | 955.47 ± 0.11
x1 = 0.7495 | 982.81 ± 0.11 | 970.92 ± 0.11 | 959.07 ± 0.11
x1 = 0.7996 | 986.48 ± 0.11 | 974.42 ± 0.11 | 962.42 ± 0.11
x1 = 0.8498 | 989.84 ± 0.11 | 977.65 ± 0.11 | 965.47 ± 0.11
x1 = 0.8994 | 992.98 ± 0.11 | 980.64 ± 0.11 | 968.32 ± 0.11

C[SiH]1O[SiH](C)O[SiH](C)O[SiH](C)O1 (stereo unspecified) [2,4,6,8-tetramethyl-1,3,5,7,2,4,6,8-tetroxatetrasilocane] + Cc1ccccc1
mass density [kg/m3], [2]
Conditions | 288.15 K | 298.15 K | 308.15 K
x1 = 0.0499 | 886.6 ± 0.13 | 877.08 ± 0.14 | 867.53 ± 0.14
x1 = 0.0999 | 899.94 ± 0.13 | 890.19 ± 0.13 | 880.4 ± 0.13
x1 = 0.15 | 911.67 ± 0.13 | 901.66 ± 0.13 | 891.68 ± 0.13
x1 = 0.2 | 921.98 ± 0.12 | 911.75 ± 0.13 | 901.57 ± 0.13
x1 = 0.25 | 931.15 ± 0.12 | 920.71 ± 0.12 | 910.33 ± 0.12
x1 = 0.3 | 939.31 ± 0.12 | 928.7 ± 0.12 | 918.15 ± 0.12
x1 = 0.3502 | 946.71 ± 0.12 | 935.91 ± 0.12 | 925.11 ± 0.12
x1 = 0.4 | 953.26 ± 0.12 | 942.25 ± 0.12 | 931.31 ± 0.12
x1 = 0.4501 | 959.23 ± 0.11 | 948.05 ± 0.12 | 936.94 ± 0.12
x1 = 0.5004 | 964.63 ± 0.11 | 953.32 ± 0.11 | 942.01 ± 0.12
x1 = 0.5504 | 969.56 ± 0.11 | 958.11 ± 0.11 | 946.61 ± 0.12
x1 = 0.5998 | 973.98 ± 0.11 | 962.38 ± 0.11 | 950.74 ± 0.11
x1 = 0.6497 | 978.02 ± 0.11 | 966.26 ± 0.11 | 954.47 ± 0.11
x1 = 0.6994 | 981.74 ± 0.11 | 969.83 ± 0.11 | 957.9 ± 0.11
x1 = 0.7497 | 985.15 ± 0.11 | 973.12 ± 0.11 | 961.05 ± 0.11
x1 = 0.8 | 988.34 ± 0.11 | 976.19 ± 0.11 | 963.99 ± 0.11
x1 = 0.8494 | 991.18 ± 0.11 | 978.9 ± 0.11 | 966.61 ± 0.11
x1 = 0.8995 | 993.85 ± 0.11 | 981.45 ± 0.11 | 969.04 ± 0.11

Cc1ccc(C)cc1 [1,4-dimethylbenzene]
Conditions | mass density [kg/m3]
[1] | 856.67 ± 0.13

Cc1ccccc1C [1,2-dimethylbenzene]
Conditions | mass density [kg/m3]
[1] | 875.72 ± 0.13

C[SiH]1O[SiH](C)O[SiH](C)O[SiH](C)O1 (stereo unspecified) [2,4,6,8-tetramethyl-1,3,5,7,2,4,6,8-tetroxatetrasilocane] + c1ccccc1
mass density [kg/m3], [2]
Conditions | 288.15 K | 298.15 K | 308.15 K
x1 = 0.0497 | 898.88 ± 0.13 | 888.24 ± 0.13 | 877.55 ± 0.14
x1 = 0.0999 | 911.74 ± 0.13 | 900.99 ± 0.13 | 890.29 ± 0.13
x1 = 0.1499 | 922.78 ± 0.12 | 911.91 ± 0.13 | 901.26 ± 0.13
x1 = 0.1997 | 932.3 ± 0.12 | 921.32 ± 0.12 | 910.69 ± 0.12
x1 = 0.2501 | 940.72 ± 0.12 | 929.65 ± 0.12 | 918.93 ± 0.12
x1 = 0.3 | 948.04 ± 0.12 | 936.87 ± 0.12 | 926.1 ± 0.12
x1 = 0.35 | 954.56 ± 0.12 | 943.15 ± 0.12 | 932.28 ± 0.12
x1 = 0.3999 | 960.28 ± 0.11 | 948.81 ± 0.12 | 937.73 ± 0.12
x1 = 0.4498 | 965.46 ± 0.11 | 953.89 ± 0.11 | 942.65 ± 0.12
x1 = 0.4999 | 970.05 ± 0.11 | 958.4 ± 0.11 | 947.02 ± 0.11
x1 = 0.5498 | 974.22 ± 0.11 | 962.44 ± 0.11 | 950.92 ± 0.11
x1 = 0.5999 | 978.03 ± 0.11 | 966.16 ± 0.11 | 954.53 ± 0.11
x1 = 0.6486 | 981.36 ± 0.11 | 969.41 ± 0.11 | 957.65 ± 0.11
x1 = 0.7001 | 984.61 ± 0.11 | 972.54 ± 0.11 | 960.64 ± 0.11
x1 = 0.7495 | 987.43 ± 0.11 | 975.28 ± 0.11 | 963.27 ± 0.11
x1 = 0.8001 | 990.04 ± 0.11 | 977.8 ± 0.11 | 965.71 ± 0.11
x1 = 0.8499 | 992.42 ± 0.11 | 980.12 ± 0.11 | 967.91 ± 0.11
x1 = 0.8986 | 994.56 ± 0.11 | 982.19 ± 0.11 | 969.9 ± 0.11

— the NIST ThermoML archive (doi:10.1021/je2009736)
